{"source": "patent US9169243B2", "about": "“Apoptosis signal-regulating kinase inhibitors” (Gilead Sciences, Inc., priority 2013, dated 2015)"}
{"biological_target": "recombinant human ASK1 kinase (Homo sapiens (Human), UniProt Q99683)", "sequence (Q99683 whole entry)": "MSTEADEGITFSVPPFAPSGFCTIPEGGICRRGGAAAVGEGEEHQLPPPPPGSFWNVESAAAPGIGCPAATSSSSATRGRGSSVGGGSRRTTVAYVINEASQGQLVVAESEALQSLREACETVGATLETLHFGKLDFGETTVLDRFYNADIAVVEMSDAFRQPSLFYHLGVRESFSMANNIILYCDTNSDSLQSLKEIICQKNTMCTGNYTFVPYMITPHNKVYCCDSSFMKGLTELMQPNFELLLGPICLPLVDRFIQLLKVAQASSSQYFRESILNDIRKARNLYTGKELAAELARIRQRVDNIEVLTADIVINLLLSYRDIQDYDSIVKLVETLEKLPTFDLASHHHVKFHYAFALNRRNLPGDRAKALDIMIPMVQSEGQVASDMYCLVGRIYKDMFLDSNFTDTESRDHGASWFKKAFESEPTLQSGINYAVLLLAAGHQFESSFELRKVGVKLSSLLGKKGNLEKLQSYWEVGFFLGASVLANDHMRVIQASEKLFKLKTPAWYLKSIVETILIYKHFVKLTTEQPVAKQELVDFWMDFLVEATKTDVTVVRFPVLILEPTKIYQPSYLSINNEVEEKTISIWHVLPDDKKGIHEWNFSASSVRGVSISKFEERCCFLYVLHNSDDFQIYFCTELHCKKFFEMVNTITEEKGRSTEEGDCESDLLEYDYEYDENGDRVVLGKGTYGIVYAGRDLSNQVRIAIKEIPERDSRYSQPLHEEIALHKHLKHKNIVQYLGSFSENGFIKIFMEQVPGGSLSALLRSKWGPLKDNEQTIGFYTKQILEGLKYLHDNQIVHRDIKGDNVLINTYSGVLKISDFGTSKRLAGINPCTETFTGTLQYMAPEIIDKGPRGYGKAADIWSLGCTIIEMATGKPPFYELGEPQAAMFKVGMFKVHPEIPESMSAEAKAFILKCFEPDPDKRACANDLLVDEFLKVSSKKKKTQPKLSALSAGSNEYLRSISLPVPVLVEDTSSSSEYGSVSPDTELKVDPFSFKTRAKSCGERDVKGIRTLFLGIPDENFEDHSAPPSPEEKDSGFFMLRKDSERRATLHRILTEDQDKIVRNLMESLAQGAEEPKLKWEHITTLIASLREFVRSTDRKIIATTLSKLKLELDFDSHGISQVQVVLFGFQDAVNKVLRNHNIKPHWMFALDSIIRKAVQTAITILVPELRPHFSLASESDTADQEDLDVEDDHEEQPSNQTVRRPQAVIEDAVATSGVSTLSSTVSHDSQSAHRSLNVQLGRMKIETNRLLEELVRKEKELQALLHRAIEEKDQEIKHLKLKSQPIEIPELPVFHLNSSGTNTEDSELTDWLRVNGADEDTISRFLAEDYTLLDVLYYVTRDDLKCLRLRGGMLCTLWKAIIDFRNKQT", "experiment": "TR-FRET ASK1 (Apoptosis Signal-Regulating Kinase 1) kinase assay", "assay_type": "biochemical", "conditions": "TR-FRET/HTRF, 4 nM ASK1, 1 μM STK3 peptide substrate, 100 μM ATP, 3 hr; average of quadruplicate determination", "excerpt": "I. TR-FRET ASK1 (Apoptosis Signal-Regulating Kinase 1) Kinase Assay\nTo evaluate the inhibitory activity of compounds of the invention against ASK1 (Apoptosis Signal-regulating Kinase 1) kinase, its activity was examined using a TR-FRET ASK1 kinase assay which determined the amount of phosphate transferred to a peptide substrate from ATP.\nDephosphorylated recombinant human ASK1 kinase was from Gilead Sciences. Small molecule kinase inhibitor staurosporine (Catalogue #S6942) and dithiothreitol (DTT, catalogue #43815-5G) were obtained from Sigma Chemicals (St. Louis, Mo.). ATP (catalogue #7724) was from Affymetrix (Santa Clara, Calif.) and test compounds were from Gilead Sciences. HTRF KinEASE™-STK S3 kit was obtained from Cisbio (Bedford, Mass.). All other reagents were of the highest grade commercially available.\nThe assay measures the phosphorylation level of a biotinylated peptide substrate by the ASK1 kinase using HTRF detection. This is a competitive, time-resolved fluorescence resonance energy transfer (TR-FRET) immunoassay, based on HTRF® KinEASE™-STK manual from Cisbio. Test compound, 1 μM STK3 peptide substrate, 4 nM of ASK1 kinase were incubated with 10 mM MOP buffer, pH. 7.0 containing 10 mM Mg-acetate, 0.025% NP-40, 1 mM DTT, 0.05% BSA and 1.5% glycerol for 30 minutes then 100 μM ATP was added to start the kinase reaction and incubated for 3 hr. Peptide antibody labeled with 1×Eu^3+ Cryptate buffer containing 10 mM EDTA and 125 nM Streptavidin XL665 were added to stop the reaction and phosphorylated peptide substrate was detected using Envision 2103 Multilabeled reader from PerkinElmer. The fluorescence was measured at 615 nm (Cryptate) and 665 nm (XL665) and a ratio of 665 nm/615 nm was calculated for each well. The resulting TR-FRET level (a ratio of 665 nm/615 nm) was proportional to the phosphorylation level. Under these assay conditions, the degree of phosphorylation of peptide substrate was linear with time and concentration for the enzyme. The assay system yielded consistent results with regard to Km and specific activities for the enzyme. For inhibition experiments (IC50 values), activities were performed with constant concentrations of ATP, peptide and several fixed concentrations of inhibitors. Staurosporine, the nonselective kinase inhibitor, was used as the positive control. All enzyme activity data are reported as an average of quadruplicate determination.\nThe IC50 values were calculated following equation: y=Range/{1+(x/IC50)^s}+Background where x and y represent the concentration of inhibitors and enzyme activity, respectively. Enzyme activity is expressed as the amount of Phosphate incorporated into substrate peptide from ATP. Range is the maximum y range (no inhibitor, DMSO control) and s is a slope factor.", "units": {"IC50": "nM"}}
{"smiles": "O=C(Nc1csc(-c2nncn2C2CC2)n1)c1cc(-n2cnc(C3CC3)c2)c(N2CC(C(F)F)C2)cn1", "note": "[Compound 1, 4-(4-cyclopropylimidazol-1-yl)-N-[2-(4-cyclopropyl-1,2,4-triazol-3-yl)-1,3-thiazol-4-yl]-5-[3-(difluoromethyl)azetidin-1-yl]pyridine-2-carboxamide]", "IC50": 2.2}
{"smiles": "N#CC1CN(c2cnc(C(=O)Nc3csc(-c4nncn4C4CC4)n3)cc2-n2cnc(C3CC3)c2)C1", "note": "[Compound 2, 5-(3-cyanoazetidin-1-yl)-4-(4-cyclopropylimidazol-1-yl)-N-[2-(4-cyclopropyl-1,2,4-triazol-3-yl)-1,3-thiazol-4-yl]pyridine-2-carboxamide]", "IC50": 0.9}
{"smiles": "CC1(C#N)CN(c2cnc(C(=O)Nc3csc(-c4nncn4C4CC4)n3)cc2-n2cnc(C3CC3)c2)C1", "note": "[Compound 3, 5-(3-cyano-3-methylazetidin-1-yl)-4-(4-cyclopropyiimidazol-1-yl)-N-[2-(4-cyclopropyl-1,2,4-triazol-3-yl)-1,3-thiazol-4-yl]pyridine-2-carboxamide]", "IC50": 1.9}
{"smiles": "COC1(C)CN(c2cnc(C(=O)Nc3csc(-c4nncn4C4CC4)n3)cc2-n2cnc(C3CC3)c2)C1", "note": "[Compound 4, 4-(4-cyclopropylimidazol-1-yl)-N-[2-(4-cyclopropyl-1,2,4-triazol-3-yl)-1,3-thiazol-4-yl]-5-(3-methoxy-3-methylazetidin-1-yl)pyridine-2-carboxamide]", "IC50": 1.8}
{"smiles": "O=C(Nc1csc(-c2nncn2C2CC2)n1)c1cc(-n2cnc(C3CC3)c2)c(N2CC(F)(F)C2)cn1", "note": "[Compound 5, 4-(4-cyclopropylimidazol-1-yl)-N-[2-(4-cyclopropyl-1,2,4-triazol-3-yl)-1,3-thiazol-4-yl]-5-(3,3-difluoroazetidin-1-yl)pyridine-2-carboxamide]", "IC50": 2.8}
{"smiles": "COC1CCN(c2cnc(C(=O)Nc3csc(-c4nncn4C4CC4)n3)cc2-n2cnc(C3CC3)c2)C1", "note": "(stereo not shown) [Compound 6, 4-(4-cyclopropylimidazol-1-yl)-N-[2-(4-cyclopropyl-1,2,4-triazol-3-yl)-1,3-thiazol-4-yl]-5-(3-methoxypyrrolidin-1-yl)pyridine-2-carboxamide]", "IC50": 2.8}
{"smiles": "O=C(Nc1csc(-c2nncn2C2CC2)n1)c1cc(-n2cnc(C3CC3)c2)c(N2CCC(C(F)(F)F)CC2)cn1", "note": "[Compound 7, 4-(4-cyclopropylimidazol-1-yl)-N-[2-(4-cyclopropyl-1,2,4-triazol-3-yl)-1,3-thiazol-4-yl]-5-[4-(trifluoromethyl)piperidin-1-yl]pyridine-2-carboxamide]", "IC50": 3.2}
{"smiles": "O=C(Nc1csc(-c2nncn2C2CC2)n1)c1cc(-n2cnc(C3CC3)c2)c(N2CCC(F)CC2)cn1", "note": "[Compound 8, 4-(4-cyclopropylimidazol-1-yl)-N-[2-(4-cyclopropyl-1,2,4-triazol-3-yl)-1,3-thiazol-4-yl]-5-(4-fluoropiperidin-1-yl)pyridine-2-carboxamide]", "IC50": 2.5}
{"smiles": "N#CC1CCN(c2cnc(C(=O)Nc3csc(-c4nncn4C4CC4)n3)cc2-n2cnc(C3CC3)c2)CC1", "note": "[Compound 9, 5-(4-cyanopiperidin-1-yl)-4-(4-cyclopropylimidazol-1-yl)-N-[2-(4-cyclopropyl-1,2,4-triazol-3-yl)-1,3-thiazol-4-yl]pyridine-2-carboxamide]", "IC50": 2.2}
{"smiles": "COC1CCN(c2cnc(C(=O)Nc3csc(-c4nncn4C4CC4)n3)cc2-n2cnc(C3CC3)c2)CC1", "note": "[Compound 10, 4-(4-cyclopropylimidazol-1-yl)-N-[2-(4-cyclopropyl-1,2,4-triazol-3-yl)-1,3-thiazol-4-yl]-5-(4-methoxypiperidin-1-yl)pyridine-2-carboxamide]", "IC50": 3.2}
{"smiles": "CNC(=O)C1CCN(c2cnc(C(=O)Nc3csc(-c4nncn4C4CC4)n3)cc2-n2cnc(C3CC3)c2)CC1", "note": "[Compound 11, 4-(4-cyclopropylimidazol-1-yl)-N-[2-(4-cyclopropyl-1,2,4-triazol-3-yl)-1,3-thiazol-4-yl]-5-[4-(methylcarbamoyl)piperidin-1-yl]pyridine-2-carboxamide]", "IC50": 0.4}
{"smiles": "COC1(C)CCN(c2cnc(C(=O)Nc3csc(-c4nncn4C4CC4)n3)cc2-n2cnc(C3CC3)c2)CC1", "note": "[Compound 12, 4-(4-cyclopropylimidazol-1-yl)-N-[2-(4-cyclopropyl-1,2,4-triazol-3-yl)-1,3-thiazol-4-yl]-5-(4-methoxy-4-methylpiperidin-1-yI)pyridine-2-carboxamide]", "IC50": 14.2}
{"smiles": "O=C(Nc1csc(-c2nncn2C2CC2)n1)c1cc(-n2cnc(C3CC3)c2)c(N2CCN(CC(F)(F)F)CC2)cn1", "note": "[Compound 13, 4-(4-cyclopropylimidazol-1-yl)-N-[2-(4-cyclopropyl-1,2,4-triazol-3-yl)-1,3-thiazol-4-yl]-5-[4-(2,2,2-trifluoroethyl)piperazin-1-yl]pyridine-2-carboxamide]", "IC50": 2.9}
{"smiles": "O=C(Nc1csc(-c2nncn2C2CC2)n1)c1cc(-n2cnc(C3CC3)c2)c(N2CCCOCC2)cn1", "note": "[Compound 14, 4-(4-cyclopropylimidazol-1-yl)-N-[2-(4-cyclopropyl-1,2,4-triazol-3-yl)-1,3-thiazol-4-yl]-5-(1,4-oxazepan-4-yl)pyridine-2-carboxamide]", "IC50": 3.8}
{"smiles": "O=C(Nc1csc(-c2nncn2C2CC2)n1)c1cc(-n2cnc(C3CC3)c2)c(N2CCN3C(=O)OCC3C2)cn1", "note": "(stereo not shown) [Compound 16, 4-(4-cyclopropylimidazol-1-yl)-N-[2-(4-cyclopropyl-l,2,4-triazol-3-yl)-1,3-thiazol-4-yl]-5-(3-oxo-5,6,8,8a-tetrahydro-1H-[1,3]oxazolo[3,4-a]pyrazin-7-yl)pyridine-2-carboxamide]", "IC50": 2.7}
{"smiles": "O=C(Nc1csc(-c2nncn2C2CC2)n1)c1cc(-n2cnc(C3CC3)c2)c(N2CC3CC3C2)cn1", "note": "(stereo not shown) [Compound 17, 5-(3-azabicyclo[3.1.0]hexan-3-yl)-4-(4-cyclopropylimidazol-1-yl)-N-[2-(4-cyclopropyl-1,2,4-triazol-3-yl)-3,3-thiazol-4-yl]pyridine-2-carboxamide]", "IC50": 1.1}
{"smiles": "O=C(Nc1csc(-c2nncn2C2CC2)n1)c1cc(-n2cnc(C3CC3)c2)c(N2CC(N3CCOCC3)C2)cn1", "note": "[Compound 18, 4-(4-cyclopropylimidazol-1-yl)-N-[2-(4-cyclopropyl-1,2,4-triazol-3-yl)-1,3-thiazol-4-yl]-5-(3-morpholin-4-ylazetidin-1-yl)pyridine-2-carboxamide]", "IC50": 2.3}
{"smiles": "O=C(Nc1csc(-c2nncn2C2CC2)n1)c1cc(-n2cnc(C3CC3)c2)c(N2CCN(C3CC3)CC2)cn1", "note": "[Compound 19, 4-(4-cyclopropylimidazol-1-yl)-5-(4-cyclopropylpiperazin-1-yl)-N-[2-(4-cyclopropyl-1,2,4-triazol-3-yl)-1,3-thiazol-4-yl]pyridine-2-carboxamide]", "IC50": 2.8}
{"smiles": "O=C(Nc1csc(-c2nncn2C2CC2)n1)c1cc(-n2cnc(C3CC3)c2)c(N2CCN(CC3CC3)CC2)cn1", "note": "[Compound 20, 4-(4-cyclopropylimidazol-1-yl)-5-[4-(cyclopropylmethyl)piperazin-1-yl]-N-[2-(4-cyclopropyl-1,2,4-triazol-3-yl)-1,3-thiazol-4-yl]pyridine-2-carboxamide]", "IC50": 2.5}
{"smiles": "O=C(Nc1csc(-c2nncn2C2CC2)n1)c1cc(-n2cnc(C3CC3)c2)c(N2CCC3(CC2)COC3)cn1", "note": "[Compound 21, 4-(4-cyclopropylimidazol-1-yl)-N-[2-(4-cyclopropyl-1,2,4-triazol-3-yl)-1,3-thiazol-4-yl]-5-(2-oxa-7-azaspiro[3.5]nonan-7-y!)pyridine-2-carboxamide]", "IC50": 1.9}
{"smiles": "O=C(Nc1csc(-c2nncn2C2CC2)n1)c1cc(-n2cnc(C3CC3)c2)c(N2CC3(CCOCC3)C2)cn1", "note": "[Compound 22, 4-(4-cyclopropylimidazol-1-yl)-N-[2-(4-cyclopropyl-1,2,4-triazol-3-yl)-1,3-thiazol-4-yl]-5-(7-oxa-2-azaspiro[3.5]nonan-2-yl)pyridine-2-carboxamide]", "IC50": 4.5}
{"smiles": "COCC1CN(c2cnc(C(=O)Nc3csc(-c4nncn4[C@@H](C)C(F)(F)F)n3)cc2-n2cnc(C3CC3)c2)C1", "note": "[Compound 23, (S)-4-(4-cyclopropyl-1H-imidazol-1-yl)-5-(3-(methoxymethyl)azetidin-1-yl)-N-(2-(4-(1,1,1-trifluoropropan-2-yl)-4H-1,2,4-triazol-3-yl)thiazol-4-yl)picolinamide]", "IC50": 2}
